Results published in PubChem BioAssay (NCI).
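Exposure lasted 48 hours, with cells grown in 96-well plates and compounds tested at five concentrations. GI50 marks 50% less growth. At the TGI there is no net growth.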

Key:
Assay in all cases: NCI-60 cell line screen, 48 h
[1] = system: HCC-2998 colon
[2] = system: HOP-62 NSCLC
[3] = system: K-562 leukemia
[4] = system: LOX IMVI melanoma
[5] = system: OVCAR-8 ovarian
[6] = system: RPMI-8226 leukemia
[7] = system: SK-MEL-2 melanoma
[8] = system: SNB-75 CNS
[9] = system: TK-10 renal
[10] = system: HS 578T breast

Row | Compound | TGI [1] [µM] | TGI [2] [µM] | TGI [3] [µM] | TGI [4] [µM] | TGI [5] [µM] | TGI [6] [µM] | TGI [7] [µM] | TGI [8] [µM] | TGI [9] [µM] | GI50 [2] [µM] | GI50 [10] [µM] | TGI [10] [µM] | GI50 [3] [µM] | GI50 [4] [µM] | GI50 [5] [µM] | GI50 [6] [µM] | GI50 [7] [µM] | GI50 [8] [µM] | GI50 [9] [µM] | GI50 [1] [µM]
1 | Cn1sc2ccccc2c1=S | 45.9 | 24.5 | 26.1 | 4.5 | 22.3 | 18.7 | 56.5 | 17.4 | 44.8 | – | – | – | – | – | – | – | – | – | – | –
2 | COc1ccccc1NC(=O)C(CC(C(=O)Nc1ccccc1OC)/C(C)=N/NC(=O)c1ccccc1O)/C(C)=N/NC(=O)c1ccccc1O (centres undefined) | > 100 | > 100 | > 100 | > 100 | > 100 | > 100 | > 100 | > 100 | > 100 | – | – | – | – | – | – | – | – | – | – | –
3 | COC(=O)C1=C(C)N(NC(N)=O)C(C)(O)C12CCOC2=O (centres undefined) | 45.1 | > 100 | > 100 | > 100 | > 100 | > 100 | > 100 | – | > 100 | – | – | – | – | – | – | – | – | – | – | –
4 | FC(F)(F)c1cccc(C2SCc3nc4ccccc4n32)c1 (centres undefined) | > 100 | – | > 100 | – | > 100 | > 100 | > 100 | > 100 | > 100 | – | – | – | – | – | – | – | – | – | – | –
5 | CC(C)(C)c1cc(-c2nc3c(F)c(F)c(F)c(F)c3[nH]2)cc(C(C)(C)C)c1O | – | > 100 | > 100 | > 100 | > 100 | > 100 | > 100 | > 100 | > 100 | > 100 | > 100 | > 100 | > 100 | > 100 | > 100 | > 100 | > 100 | > 100 | > 100 | –
6 | c1ccc2c3c(ccc2c1)-c1c(ccc2c(NCCCCN4CCCCC4)cccc12)C3 | 3.49 | 2.91 | 5.85 | – | 5.61 | 3.6 | 6.42 | – | 4.57 | 1.57 | – | – | 1.67 | – | 2.19 | 1.64 | 2.92 | – | 2.24 | 1.63
7 | COc1ccc(C2C3=C(COC3=O)Oc3cc4c(cc32)OCO4)cc1 (centres undefined) | – | 51.7 | > 100 | > 100 | > 100 | > 100 | > 100 | 39.7 | > 100 | – | – | – | – | – | – | – | – | – | – | –
8 | CCCCCCCCCCCCC(CCCCCCCCCCCC)OP(=O)(O)O | > 100 | > 100 | > 100 | > 100 | > 100 | > 100 | > 100 | > 100 | > 100 | – | – | – | – | – | – | – | – | – | – | –
9 | O=C(O)[C@@H](NS(=O)(=O)c1ccc([N+](=O)[O-])cc1)c1ccccc1 | > 100 | – | > 100 | > 100 | > 100 | > 100 | > 100 | > 100 | > 100 | – | – | – | – | – | – | – | – | – | – | –
10 | CCOC(=O)C(C(=O)OCC)=c1sc(=C(C(=O)OCC)C(=O)OCC)s1 | > 100 | > 100 | > 100 | > 100 | > 100 | > 100 | > 100 | > 100 | > 100 | – | – | – | – | – | – | – | – | – | – | –
